{"source": "paper PMC3401542", "about": "(Bioorganic & medicinal chemistry, 2012)", "origin": "cited, not measured here", "test_system": "N1 NAs", "details": "read-out: inhibition (IC50) of N1 NAs; range over N1 NAs; ref [28]; cited from earlier work", "data": [{"smiles": "CCC(CC)O[C@@H]1C=C(C(=O)O)C[C@H](N)[C@H]1NC(C)=O", "note": "[Compound 1c, oseltamivir carboxylate]", "values": [{"measurement": "IC50", "result": "0.3 to 0.8", "unit": "nM"}]}]}
